# Reference: PubChem BioAssay AID1745844 (Carcinogenic Potency Database (CPDB), 2022)
# Where “and” joins values, the source holds several entries; their conditions need not be identical. Identical values can stand only once. Calls of active or inactive are those of the source. How the calls were made is not given here.
# System: rodent lifetime carcinogenesis bioassay, tumor incidence TD50
# Assay: carcinogenic potency in animals, long-term in vivo studies, CPDB compilation (AID 1745844)
compound,measurement,setting,value
Nc1ccc(Cl)cc1N,TD50,"mouse, strain B6C3F1, females, in feed, site: any site (literature study), lesion: several types, types named in the paper, dosed 78 weeks, study length 95 weeks",4090 mg/kg/day
same,TD50,"mouse, strain B6C3F1, females, in feed, site: liver, lesion: hepatocellular adenoma + hepatocellular carcinoma + neoplastic nodule, dosed 78 weeks, study length 95 weeks",2240 mg/kg/day
same,TD50,"mouse, strain B6C3F1, females, in feed, site: liver, lesion: hepatocellular adenoma + hepatocellular carcinoma, dosed 78 weeks, study length 95 weeks",2240 mg/kg/day
same,TD50,"mouse, strain B6C3F1, females, in feed, site: liver, lesion: hepatocellular carcinoma, dosed 78 weeks, study length 95 weeks",5060 mg/kg/day
same,TD50,"mouse, strain B6C3F1, males, in feed, site: any site (literature study), lesion: several types, types named in the paper, dosed 78 weeks, study length 95 weeks",905 mg/kg/day
same,TD50,"mouse, strain B6C3F1, males, in feed, site: liver, lesion: hepatocellular adenoma + hepatocellular carcinoma + neoplastic nodule, dosed 78 weeks, study length 95 weeks",957 mg/kg/day
same,TD50,"mouse, strain B6C3F1, males, in feed, site: liver, lesion: hepatocellular adenoma + hepatocellular carcinoma, dosed 78 weeks, study length 95 weeks",957 mg/kg/day
same,TD50,"mouse, strain B6C3F1, males, in feed, site: liver, lesion: hepatocellular carcinoma, dosed 78 weeks, study length 95 weeks",1370 mg/kg/day
same,TD50,"mouse, strain B6C3F1, males, in feed, site: lung, lesion: alveolar/bronchiolar adenoma + alveolar/bronchiolar carcinoma, dosed 78 weeks, study length 95 weeks",21300 mg/kg/day
same,TD50,"rat, strain Fischer 344, females, in feed, site: any site (literature study), lesion: several types, types named in the paper, dosed 78 weeks, study length 105 weeks",351 mg/kg/day
same,TD50,"rat, strain Fischer 344, females, in feed, site: liver, lesion: hepatocellular adenoma + hepatocellular carcinoma + neoplastic nodule, dosed 78 weeks, study length 105 weeks",6500 mg/kg/day
same,TD50,"rat, strain Fischer 344, females, in feed, site: stomach + urinary bladder, lesion: squamous-cell papilloma + papillomatosis + papillary carcinoma + papilloma, NOS + transitional-cell carcinoma + transitional-cell, dosed 78 weeks, study length 105 weeks",212 mg/kg/day
same,TD50,"rat, strain Fischer 344, females, in feed, site: stomach, lesion: squamous-cell papilloma, dosed 78 weeks, study length 105 weeks",5270 mg/kg/day
same,TD50,"rat, strain Fischer 344, females, in feed, site: thyroid gland, lesion: follicular-cell adenoma + follicular-cell carcinoma, dosed 78 weeks, study length 105 weeks",2160 mg/kg/day
same,TD50,"rat, strain Fischer 344, females, in feed, site: urinary bladder, lesion: papillary carcinoma + transitional-cell carcinoma, dosed 78 weeks, study length 105 weeks",429 mg/kg/day
same,TD50,"rat, strain Fischer 344, females, in feed, site: urinary bladder, lesion: papillomatosis + papillary carcinoma + papilloma, NOS + transitional-cell carcinoma + transitional-cell papilloma, dosed 78 weeks, study length 105 weeks",212 mg/kg/day
same,TD50,"rat, strain Fischer 344, males, in feed, site: any site (literature study), lesion: several types, types named in the paper, dosed 78 weeks, study length 105 weeks",362 mg/kg/day
same,TD50,"rat, strain Fischer 344, males, in feed, site: liver, lesion: hepatocellular adenoma + hepatocellular carcinoma + neoplastic nodule, dosed 78 weeks, study length 105 weeks",1240 mg/kg/day
same,TD50,"rat, strain Fischer 344, males, in feed, site: stomach + urinary bladder, lesion: squamous-cell carcinoma + squamous-cell papilloma + papilloma, NOS + transitional-cell carcinoma + transitional-cell papilloma, dosed 78 weeks, study length 105 weeks",197 mg/kg/day
same,TD50,"rat, strain Fischer 344, males, in feed, site: stomach, lesion: squamous-cell carcinoma + squamous-cell papilloma, dosed 78 weeks, study length 105 weeks",2500 mg/kg/day
same,TD50,"rat, strain Fischer 344, males, in feed, site: thyroid gland, lesion: follicular-cell adenoma + follicular-cell carcinoma, dosed 78 weeks, study length 105 weeks",3380 mg/kg/day
same,TD50,"rat, strain Fischer 344, males, in feed, site: urinary bladder, lesion: papilloma, NOS + transitional-cell carcinoma + transitional-cell papilloma, dosed 78 weeks, study length 105 weeks",216 mg/kg/day
same,TD50,"rat, strain Fischer 344, males, in feed, site: urinary bladder, lesion: squamous-cell carcinoma, dosed 78 weeks, study length 105 weeks",3780 mg/kg/day
same,TD50,"rat, strain Fischer 344, males, in feed, site: urinary bladder, lesion: transitional-cell carcinoma, dosed 78 weeks, study length 105 weeks",363 mg/kg/day
[O]=[Bi],carcinogen call,"rat, strain BD, both sexes, in feed, site: hypophysis, lesion: adenoma, dosed 104 weeks, study length 120 weeks",negative (inactive)
same,carcinogen call,"rat, strain BD, both sexes, in feed, site: mammary gland, lesion: carcinoma, dosed 104 weeks, study length 120 weeks",negative (inactive)
same,TD50,"rat, strain BD, both sexes, in feed, site: mammary gland, lesion: fibroadenoma, dosed 104 weeks, study length 120 weeks",150000 mg/kg/day (inactive)
C=CC(=O)NCO,TD50,"mouse, strain B6C3F1, females, by gavage, site: Harderian gland + liver + lung + ovary, lesion: adenoma + adenoma, bilateral + hepatocellular adenoma + alveolar/bronchiolar adenoma + alveolar/bronchiolar carcinoma + granulosa-, dosed 103 weeks, study length 105 weeks",27.8 mg/kg/day
same,TD50,"mouse, strain B6C3F1, females, by gavage, site: Harderian gland, lesion: adenoma + adenoma, bilateral + carcinoma, dosed 103 weeks, study length 105 weeks",44.6 mg/kg/day
same,TD50,"mouse, strain B6C3F1, females, by gavage, site: Harderian gland, lesion: adenoma + adenoma, bilateral, dosed 103 weeks, study length 105 weeks",55.5 mg/kg/day
same,TD50,"mouse, strain B6C3F1, females, by gavage, site: any site (literature study), lesion: several types, types named in the paper, dosed 103 weeks, study length 105 weeks",30.9 mg/kg/day
same,TD50,"mouse, strain B6C3F1, females, by gavage, site: liver, lesion: hepatocellular adenoma + hepatocellular carcinoma + neoplastic nodule, dosed 103 weeks, study length 105 weeks",74.8 mg/kg/day
same,TD50,"mouse, strain B6C3F1, females, by gavage, site: liver, lesion: hepatocellular adenoma + hepatocellular carcinoma, dosed 103 weeks, study length 105 weeks",74.8 mg/kg/day
same,TD50,"mouse, strain B6C3F1, females, by gavage, site: liver, lesion: hepatocellular adenoma, dosed 103 weeks, study length 105 weeks",66.9 mg/kg/day
same,TD50,"mouse, strain B6C3F1, females, by gavage, site: lung, lesion: alveolar/bronchiolar adenoma + alveolar/bronchiolar carcinoma, dosed 103 weeks, study length 105 weeks",111 mg/kg/day
same,TD50,"mouse, strain B6C3F1, females, by gavage, site: ovary, lesion: granulosa-cell tumor, benign, dosed 103 weeks, study length 105 weeks",119 mg/kg/day
same,TD50,"mouse, strain B6C3F1, males, by gavage, site: Harderian gland + liver + lung, lesion: adenoma + hepatocellular adenoma + hepatocellular carcinoma + alveolar/bronchiolar adenoma + alveolar/bronchiolar carcinoma, dosed 103 weeks, study length 105 weeks",13.3 mg/kg/day
same,TD50,"mouse, strain B6C3F1, males, by gavage, site: Harderian gland, lesion: adenoma + carcinoma, dosed 103 weeks, study length 105 weeks",17.4 mg/kg/day
same,TD50,"mouse, strain B6C3F1, males, by gavage, site: Harderian gland, lesion: adenoma, dosed 103 weeks, study length 105 weeks",17.5 mg/kg/day
same,TD50,"mouse, strain B6C3F1, males, by gavage, site: any site (literature study), lesion: several types, types named in the paper, dosed 103 weeks, study length 105 weeks",22.3 mg/kg/day
same,TD50,"mouse, strain B6C3F1, males, by gavage, site: liver, lesion: hepatocellular adenoma + hepatocellular carcinoma + neoplastic nodule, dosed 103 weeks, study length 105 weeks",29.4 mg/kg/day
same,TD50,"mouse, strain B6C3F1, males, by gavage, site: liver, lesion: hepatocellular adenoma + hepatocellular carcinoma, dosed 103 weeks, study length 105 weeks",29.4 mg/kg/day
same,TD50,"mouse, strain B6C3F1, males, by gavage, site: liver, lesion: hepatocellular adenoma, dosed 103 weeks, study length 105 weeks",50.2 mg/kg/day
same,TD50,"mouse, strain B6C3F1, males, by gavage, site: liver, lesion: hepatocellular carcinoma, dosed 103 weeks, study length 105 weeks",63.4 mg/kg/day
same,TD50,"mouse, strain B6C3F1, males, by gavage, site: lung, lesion: alveolar/bronchiolar adenoma + alveolar/bronchiolar carcinoma, dosed 103 weeks, study length 105 weeks",38.5 mg/kg/day
same,TD50,"mouse, strain B6C3F1, males, by gavage, site: lung, lesion: alveolar/bronchiolar adenoma, dosed 103 weeks, study length 105 weeks",66 mg/kg/day
same,TD50,"mouse, strain B6C3F1, males, by gavage, site: lung, lesion: alveolar/bronchiolar carcinoma, dosed 103 weeks, study length 105 weeks",75.1 mg/kg/day
same,carcinogen call,"rat, strain Fischer 344, females, by gavage, site: any site (literature study), lesion: several types, types named in the paper, dosed 103 weeks, study length 105 weeks",negative (inactive)
same,TD50,"rat, strain Fischer 344, males, by gavage, site: any site (literature study), lesion: several types, types named in the paper, dosed 103 weeks, study length 105 weeks",3120 mg/kg/day
same,TD50,"rat, strain Fischer 344, males, by gavage, site: skin, lesion: keratoacanthoma, dosed 103 weeks, study length 105 weeks",13 mg/kg/day (inactive)
Nc1c(Cl)cc(Cl)cc1Cl,TD50,"mouse, strain CD-1 HaM/ICR, females, in feed, site: any site (literature study), lesion: several types, types named in the paper, dosed 68 weeks, study length 77 weeks",914 mg/kg/day (inactive)
same,TD50,"mouse, strain CD-1 HaM/ICR, females, in feed, site: liver, lesion: several types, types named in the paper, dosed 68 weeks, study length 77 weeks",927 mg/kg/day (inactive)
same,TD50,"mouse, strain CD-1 HaM/ICR, females, in feed, site: lung, lesion: several types, types named in the paper, dosed 68 weeks, study length 77 weeks",1370 mg/kg/day (inactive)
same,TD50,"mouse, strain CD-1 HaM/ICR, males, in feed, site: all sites, lesion: all vascular tumors, dosed 68 weeks, study length 77 weeks",273 mg/kg/day and 259 mg/kg/day
same,TD50,"mouse, strain CD-1 HaM/ICR, males, in feed, site: any site (literature study), lesion: several types, types named in the paper, dosed 68 weeks, study length 77 weeks",206 mg/kg/day
same,TD50,"mouse, strain CD-1 HaM/ICR, males, in feed, site: liver, lesion: hepatoma, dosed 68 weeks, study length 77 weeks",560 mg/kg/day
same,TD50,"mouse, strain CD-1 HaM/ICR, males, in feed, site: liver, lesion: several types, types named in the paper, dosed 68 weeks, study length 77 weeks",452 mg/kg/day
same,TD50,"mouse, strain CD-1 HaM/ICR, males, in feed, site: lung, lesion: several types, types named in the paper, dosed 68 weeks, study length 77 weeks",385 mg/kg/day (inactive)
same,TD50,"rat, strain Charles River CD (Sprague-Dawley), males, in feed, site: any site (literature study), lesion: several types, types named in the paper, dosed 77 weeks, study length 116 weeks",45.9 mg/kg/day (inactive)
same,carcinogen call,"rat, strain Charles River CD (Sprague-Dawley), males, in feed, site: liver, lesion: several types, types named in the paper, dosed 77 weeks, study length 116 weeks",negative (inactive)
ClCC(Cl)(Cl)Cl,TD50,"mouse, strain B6C3F1, females, by gavage, site: any site (literature study), lesion: several types, types named in the paper, dosed 103 weeks, study length 104 weeks",110 mg/kg/day
same,TD50,"mouse, strain B6C3F1, females, by gavage, site: liver, lesion: hepatocellular adenoma + hepatocellular carcinoma + neoplastic nodule, dosed 103 weeks, study length 104 weeks",175 mg/kg/day
same,TD50,"mouse, strain B6C3F1, females, by gavage, site: liver, lesion: hepatocellular adenoma + hepatocellular carcinoma, dosed 103 weeks, study length 104 weeks",175 mg/kg/day
same,TD50,"mouse, strain B6C3F1, females, by gavage, site: liver, lesion: hepatocellular adenoma, dosed 103 weeks, study length 104 weeks",254 mg/kg/day
same,TD50,"mouse, strain B6C3F1, females, by gavage, site: liver, lesion: hepatocellular carcinoma, dosed 103 weeks, study length 104 weeks",640 mg/kg/day
same,TD50,"mouse, strain B6C3F1, females, by gavage, site: lung, lesion: alveolar/bronchiolar adenoma + alveolar/bronchiolar carcinoma, dosed 103 weeks, study length 104 weeks",1820 mg/kg/day
same,TD50,"mouse, strain B6C3F1, males, by gavage, site: any site (literature study), lesion: several types, types named in the paper, dosed 103 weeks, study length 104 weeks",97.9 mg/kg/day
same,TD50,"mouse, strain B6C3F1, males, by gavage, site: liver, lesion: hepatocellular adenoma + hepatocellular carcinoma + neoplastic nodule, dosed 103 weeks, study length 104 weeks",124 mg/kg/day
same,TD50,"mouse, strain B6C3F1, males, by gavage, site: liver, lesion: hepatocellular adenoma + hepatocellular carcinoma, dosed 103 weeks, study length 104 weeks",124 mg/kg/day
same,TD50,"mouse, strain B6C3F1, males, by gavage, site: liver, lesion: hepatocellular adenoma, dosed 103 weeks, study length 104 weeks",190 mg/kg/day
same,TD50,"mouse, strain B6C3F1, males, by gavage, site: lung, lesion: alveolar/bronchiolar adenoma + alveolar/bronchiolar carcinoma, dosed 103 weeks, study length 104 weeks",1330 mg/kg/day
same,TD50,"rat, strain Fischer 344, females, by gavage, site: liver, lesion: hepatocellular adenoma + hepatocellular carcinoma + neoplastic nodule, dosed 103 weeks, study length 104 weeks",3980 mg/kg/day
same,TD50,"rat, strain Fischer 344, females, by gavage, site: mammary gland, lesion: fibroadenoma, dosed 103 weeks, study length 104 weeks",170 mg/kg/day (inactive)
same,TD50,"rat, strain Fischer 344, males, by gavage, site: any site (literature study), lesion: several types, types named in the paper, dosed 103 weeks, study length 104 weeks",464 mg/kg/day
same,TD50,"rat, strain Fischer 344, males, by gavage, site: liver, lesion: hepatocellular adenoma + hepatocellular carcinoma + neoplastic nodule, dosed 103 weeks, study length 104 weeks",1130 mg/kg/day
same,TD50,"rat, strain Fischer 344, males, by gavage, site: multiple organs + peritoneum + tunica vaginalis, lesion: mesothelioma, malignant + mesothelioma, NOS, dosed 103 weeks, study length 104 weeks",842 mg/kg/day (inactive)
O=C1NC(O)CCN1[C@@H]1O[C@H](CO)[C@@H](O)[C@H]1O (some centres not stated),TD50,"rat, strain Fischer 344, males, i.p., site: any site (literature study), lesion: one or several types, types not named, dosed 52 weeks, study length 52 weeks",15.7 mg/kg/day
